The record followed here is patent publication US12509482B2, “3′-ketoglycoside compound for the slow release of a volatile alcohol” (GLYCOSCIENCE, S.L., priority 2020, dated 2025).

Common to all, as to type: physicochemical
The nature of data set [1]: Example 23: release of methanol from methyl-O-α-D-3′-ketomannopyranoside vs methyl-O-α-D-mannopyranoside, 0.1 M deuterated phosphate buffer or D2O, 15% D6-DMSO, 32° C. The method, then:
In this example the rate of release of methanol from (2R,3R,5R,6S)-3,5-dihydroxy-2-(hydroxymethyl)-6-methoxytetrahydro-4H-pyran-4-one (methyl-O-α-D-3′-ketomannopyranoside) vs. (2R,3S,4S,5S,6S)-2-(hydroxymethyl)-6-methoxytetrahydro-2H-pyran-3,4,5-triol (methyl-O-α-D-mannopyranoside) in D2O containing 15% D6-DMSO or in 0.1 M deuterated phosphate buffer solutions of differing pH containing 15% D6-DMSO or in D2O was determined.
(§1) 0.1 M of pH 5.8 and 7.4 stock buffered solutions of sodium dihydrogen phosphate and disodium hydrogen phosphate were prepared in deuterated water (D2O).
A stock solution of 25 mg of methyl-O-α-D-3′-ketoglucomannoside in 1.0 mL of D6-DMSO were prepared.
(§2) After times indicated in table below, the mixtures where analysed by ^1H-NMR in a 400 MHz instrument.

A short description of data set [2]: Example 24: release of geraniol from geranyl-3′-keto-2′-deoxyglucopyranoside vs 2′-deoxyglucopyranoside, 0.1 M deuterated phosphate buffer or D2O, 50% D6-DMSO, 32° C. The method, then:
In this example the rate of release of geraniol from (2R,3R)-6-(((E)-3,7-dimethylocta-2,6-dien-1-yl)oxy)-3-hydroxy-2-(hydroxymethyl)tetrahydro-4H-pyran-4-one in (geranyl-3′-keto-2′-deoxyglucopyranoside) 0.1 M deuterated phosphate buffer solutions of differing pH containing 50% D6-DMSO was determined.
as §1
A stock solution of 15 mg of geraniol-O-β-D-3′-keto-2′-deoxyglucopyranoside in 1.5 mL of D6-DMSO were prepared.
as §2

A short description of data set [3]: Example 22: competitive release of para-nitrophenol from an approximately equimolar solution of 4-nitrophenyl-O-β-D- and -O-α-D-3′-ketoglucopyranoside, 32° C., 1H NMR integrals. The source says:
In this example the competitive rate of release of para-nitrophenol from an approximately equimolar solution of (2R,5S,6S)-3,5-dihydroxy-2-(hydroxymethyl)-6-(4-nitrophenoxy)tetrahydro-4H-pyran-4-one (4-nitrophenyl-O-β-D-3′-ketoglucopyranoside) and (2R,5S,6S)-3,5-dihydroxy-2-(hydroxymethyl)-6-(4-nitrophenoxy)tetrahydro-4H-pyran-4-one (4-nitrophenyl-O-α-D-3′-ketoglucopyranoside) in D2O containing 1.5% D6-DMSO or in 0.1 M deuterated phosphate buffer, pH 5.8 containing 1.5% D6-DMSO or in D2O was determined.
A solution containing approximately 2 mg each of 4-nitrophenyl-O-β-D-3′-ketoglucopyranoside and 4-nitrophenyl-O-α-D-3′-ketoglucopyranoside was prepared in 1 mL of D2O containing 3.3% v/v D6-DMSO. To two 0.375 mL portions of the resultant solution was added either D2O (0.5 mL) or 0.1M sodium phosphate buffer, pH 5.8 (0.5 mL) to given reactions 1 and 2 respectively. The resultant mixtures were analysed by ^1H NMR directly following preparation then incubated at 32° C./80 rpm and periodically analysed by ^1H NMR at recorded time points.
The change in the ratio between the integrals of the anomeric protons of each ketoglucoside and between the were sum of the anomeric protons and the anomeric protons of each ketoglucoside with time are shown in Table IX: […]

Data set [4] in a line: Example 25: release of geraniol from geranyl-O-β-D-2′-acetamido-2′-deoxy-3′-keto-glucopyranoside vs geranyl-β-2′-acetamido-2′-deoxy-glucopyranoside, 0.1 M deuterated phosphate buffer or D2O, 33% D6-DMSO, 32° C. The following applies: for stability / geraniol release (in words): 32° C.
From the text: In this example the rate of release of geraniol from N-((2R,3S,5R,6R)-2-(((E)-3,7-dimethylocta-2,6-dien-1-yl)oxy)-5-hydroxy-6-(hydroxymethyl)-4-oxotetrahydro-2H-pyran-3-yl)acetamide (geranyl-O-β-D-2′-acetamido-2′-deoxy-3′-keto-glucopyranoside) vs. N-((2R,3R,4R,5S,6R)-2-(((E)-3,7-dimethylocta-2,6-dien-1-yl)oxy)-4,5-dihydroxy-6-(hydroxymethyl)tetrahydro-2H-pyran-3-yl)acetamide (geranyl-R-2′-acetamido-2′-deoxy-glucopyranoside) in D2O containing 33% D6-DMSO or in 0.1 M deuterated phosphate buffer solutions of differing pH containing 33% D6-DMSO or in D2O was determined.
as §1
A stock solution of 25 mg of geranyl-O-β-D-2′-acetamido-2′-deoxy-3′-keto-glucopyranoside in 1.0 mL of D6-DMSO were prepared.
To four parallel reaction vials, where indicated in the reaction table below, was added 0.20 mL of the glycoside substrate solutions in D6-DMSO and 0.40 mL of low or high pH 0.1M phosphate buffer in D2O and the mixtures incubated by shaking at 32° C. After times indicated in table below, the mixtures where analysed by ^1H-NMR in a 400 MHz instrument.

Setting [5] is: Reaction 2, 0.1M sodium phosphate buffer, pH 5.8, 0 h.
[6] abbreviates: Reaction 2, 0.1M sodium phosphate buffer, pH 5.8, 20 h.
Where [7] appears, read: Reaction 2, 0.1M sodium phosphate buffer, pH 5.8, 45 h.

As for `CO[C@H]1O[C@H](CO)[C@@H](O)[C@H](O)[C@@H]1O` [methyl-O-α-D-mannopyranoside, (2R,3S,4S,5S,6S)-2-(hydroxymethyl)-6-methoxytetrahydro-2H-pyran-3,4,5-triol], in data set [1] (32° C.), the “stability / methanol release (in words)” value is “remains stable at pH 7.4 and in water”. In addition, the “% Conversion by 1H-NMR” value in data set [1] (D2O, 0 h) was determined as 0%; in data set [1] (D2O, 22 h), 0%; in data set [1] (D2O, 96 h), 0%; in data set [1] (pH 7.4, 0 h), 0%; in data set [1] (pH 7.4, 22 h), 0%; in data set [1] (pH 7.4, 96 h) it was 0%. Moreover, the “% Conversion by 1H-NMR” value in data set [1] (pH 7.4, 192 h) is on record as 0%.
Take `CO[C@H]1O[C@H](CO)[C@@H](O)C(=O)[C@@H]1O` [methyl-O-α-D-3′-ketomannopyranoside, (2R,3R,5R,6S)-3,5-dihydroxy-2-(hydroxy-methyl)-6-methoxytetrahydro-4H-pyran-4-one]: in data set [1] (4.2 mg/mL), the “stability / methanol release (in words)” value was “generates methanol at both pH 5.8 and pH 7.4”. Besides, the “% Conversion by 1H-NMR” value worked out at 0% in data set [1] (D2O, 0 h); 0% in data set [1] (D2O, 22 h); 0% in data set [1] (pH 5.8, 0 h); 71% in data set [1] (pH 5.8, 22 h); 78% in data set [1] (pH 5.8, 96 h); 78% in data set [1] (pH 5.8, 192 h). Also, the “% Conversion by 1H-NMR” value was found to be 0% in data set [1] (pH 7.4, 0 h); 54% in data set [1] (pH 7.4, 22 h); 74% in data set [1] (pH 7.4, 96 h); 88% in data set [1] (pH 7.4, 192 h).
Consider `CC(C)=CCC/C(C)=C/CO[C@H]1CC(=O)[C@H](O)[C@@H](CO)O1` [geranyl-3′-keto-2′-deoxyglucopyranoside, (2R,3R)-6-(((E)-3,7-dimethylocta-2,6-dien-1-yl)oxy)-3-hydroxy-2-(hydroxymethyl)tetrahydro-4H-pyran-4-one], for which the “stability / geraniol release (in words)” value in data set [2] (32° C.) is “generates geraniol at both pH 5.8 and pH 7.4”. Besides, the “% Conversion by 1H-NMR” value in data set [2] (D2O, 0 h) was 0%; in data set [2] (D2O, 1 h), 0%; in data set [2] (D2O, 72 h), less than 5%; in data set [2] (D2O, 144 h), less than 5%; in data set [2] (pH 5.8, 0 h) it was 0%; in data set [2] (pH 5.8, 1 h) it was 5%. Besides, the “% Conversion by 1H-NMR” value in data set [2] (pH 5.8, 72 h) is on record as 32%; in data set [2] (pH 5.8, 144 h), 38%; in data set [2] (pH 5.8, 288 h), 47%; in data set [2] (pH 7.4, 0 h), 0%; in data set [2] (pH 7.4, 1 h) it was 6%; in data set [2] (pH 7.4, 72 h), 57%. The “% Conversion by 1H-NMR” value came out at 88% in data set [2] (pH 7.4, 144 h) and 100% in data set [2] (pH 7.4, 288 h). Also, the “rate of geraniol release compared with other ketoglycosides (in words)” value in data set [2] (similar conditions) is reported as “greater than observed from geranyl-O-β-D-3′-ketoglucopyranoside under similar conditions”.
With `O=C1[C@@H](O)[C@@H](Oc2ccc([N+](=O)[O-])cc2)O[C@H](CO)[C@H]1O`, the “ratio of the sum of aromatic/α-ketoglucoside proton integrals” value is listed as 6.9 in data set [3] (Reaction 1, D2O, 0 h); 7.1 in data set [3] (Reaction 1, D2O, 20 h); 6.8 in data set [3] (Reaction 1, D2O, 45 h); 6.2 in data set [3] (Reaction 1, D2O, 143 h); 5.7 in data set [3] (setting [5]); 9.3 in data set [3] (setting [6]). In addition, the “ratio of the sum of aromatic/α-ketoglucoside proton integrals” value in data set [3] (setting [7]) is on record as 14.2; in data set [3] (Reaction 2, 0.1M sodium phosphate buffer, pH 5.8, 143 h), 30.2. In addition, the “ratio of α-/β-ketoglucoside proton integrals” value is given as 1.0 in data set [3] (Reaction 1, D2O, 0 h); 1.2 in data set [3] (Reaction 1, D2O, 20 h); 1.3 in data set [3] (Reaction 1, D2O, 45 h); 1.3 in data set [3] (Reaction 1, D2O, 72 h); 1.2 in data set [3] (setting [5]); 0.8 in data set [3] (setting [6]). Besides, the “ratio of α-/β-ketoglucoside proton integrals” value in data set [3] (setting [7]) stood at 0.7; in data set [3] (Reaction 2, 0.1M sodium phosphate buffer, pH 5.8, 72 h), 0.35.
Consider `CC(C)=CCC/C(C)=C/CO[C@H]1C[C@@H](O)[C@H](O)[C@@H](CO)O1` [geranyl-O-2′-deoxyglucopyranoside, geranyl 2′-deoxy-β-D-glucopyranoside, reference compound], for which the “stability / geraniol release (in words)” value in data set [2] was “remains stable at pH 7.4”. In addition, the “% Conversion by 1H-NMR” value in data set [2] (pH 7.4, 0 h) was determined as 0%; in data set [2] (pH 7.4, 1 h) it was 0%; in data set [2] (pH 7.4, 72 h), 0%; in data set [2] (pH 7.4, 144 h) it was 0%; in data set [2] (pH 7.4, 288 h) it was 0%.
As for `CC(=O)N[C@@H]1C(=O)[C@H](O)[C@@H](CO)O[C@H]1OC/C=C(\C)CCC=C(C)C` [N-((2R,3S,5R,6R)-2-(((E)-3,7-dimethylocta-2,6-dien-1-yl)oxy)-5-hydroxy-6-(hydroxymethyl)-4-oxotetrahydro-2H-pyran-3-yl)acetamide], the “stability / geraniol release (in words)” value in data set [4] is “generates geraniol at both pH 5.8 and pH 7.4”. Further, the “% Conversion by 1H-NMR” value is given as 0% in data set [4] (D2O, 0 h); 0% in data set [4] (D2O, 1.5 h); 0% in data set [4] (D2O, 22 h); 0% in data set [4] (D2O, 48 h); 0% in data set [4] (D2O, 216 h); 0% in data set [4] (pH 5.8, 0 h). Moreover, the “% Conversion by 1H-NMR” value turned out to be 5% in data set [4] (pH 5.8, 1.5 h); 25% in data set [4] (pH 5.8, 22 h); 32% in data set [4] (pH 5.8, 48 h); 39% in data set [4] (pH 5.8, 216 h); 0% in data set [4] (pH 7.4, 0 h); 5% in data set [4] (pH 7.4, 1.5 h). For the same compound, the “% Conversion by 1H-NMR” value in data set [4] (pH 7.4, 22 h) came out at 88%; in data set [4] (pH 7.4, 48 h) it was 100%; in data set [4] (pH 7.4, 216 h), 100%. Besides, the “rate of geraniol release compared with other ketoglycosides (in words)” value in data set [4] (similar conditions) was “greater than observed from geranyl-3′-keto-2′-deoxyglucopyranoside (Example 25) or geranyl-O-β-D-3′-ketoglucopyranoside (Example 17) under similar conditions”.
Take `CC(=O)N[C@H]1[C@H](OC/C=C(\C)CCC=C(C)C)O[C@H](CO)[C@@H](O)[C@@H]1O` [N-((2R,3R,4R,5S,6R)-2-(((E)-3,7-dimethylocta-2,6-dien-1-yl)oxy)-4,5-dihydroxy-6-(hydroxymethyl)tetrahydro-2H-pyran-3-yl)acetamide, reference compound]: the “stability / geraniol release (in words)” value in data set [4] is given as “remains stable at pH 7.4”. The “% Conversion by 1H-NMR” value in data set [4] (pH 7.4, 0 h) worked out at 0%; in data set [4] (pH 7.4, 1.5 h), 0%; in data set [4] (pH 7.4, 22 h), 0%; in data set [4] (pH 7.4, 48 h), 0%; in data set [4] (pH 7.4, 216 h), 0%.
